Reference: PubChem BioAssay (NCI)
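Test compounds were applied to cells in 96-well plates for 48 hours at 5 doses. At the TGI there is no net growth.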

Assays:
Assay in all cases: growth of human tumour cells (NCI), 48 h
786-0 renal = test system: 786-0 renal
UACC-257 melanoma = test system: UACC-257 melanoma
SK-OV-3 ovarian = test system: SK-OV-3 ovarian
HS 578T breast = test system: HS 578T breast
MCF7 breast = test system: MCF7 breast
MDA-MB-435 = test system: MDA-MB-435
HOP-62 NSCLC = test system: HOP-62 NSCLC
BT-549 breast = test system: BT-549 breast
OVCAR-3 ovarian = test system: OVCAR-3 ovarian
MDA-MB-231 breast = test system: MDA-MB-231 breast
HT29 colon = test system: HT29 colon
SNB-19 CNS = test system: SNB-19 CNS
SW-620 colon = test system: SW-620 colon
HOP-92 NSCLC = test system: HOP-92 NSCLC
HCC-2998 colon = test system: HCC-2998 colon
IGROV1 ovarian = test system: IGROV1 ovarian
MDA-N = test system: MDA-N
KM12 colon = test system: KM12 colon
HL-60(TB) leukemia = test system: HL-60(TB) leukemia
TK-10 renal = test system: TK-10 renal
A549 NSCLC = test system: A549 NSCLC
SK-MEL-28 melanoma = test system: SK-MEL-28 melanoma
PC-3 prostate = test system: PC-3 prostate
SK-MEL-5 melanoma = test system: SK-MEL-5 melanoma
MALME-3M melanoma = test system: MALME-3M melanoma
HCT-116 colon = test system: HCT-116 colon
SF-539 CNS = test system: SF-539 CNS
NCI-H23 lung = test system: NCI-H23 lung
NCI-H460 lung = test system: NCI-H460 lung
HCT-15 colon = test system: HCT-15 colon
LOX IMVI melanoma = test system: LOX IMVI melanoma
MOLT-4 leukemia = test system: MOLT-4 leukemia
OVCAR-8 ovarian = test system: OVCAR-8 ovarian
NCI/ADR-RES ovarian = test system: NCI/ADR-RES ovarian
SN12C renal = test system: SN12C renal
CAKI-1 renal = test system: CAKI-1 renal
SF-268 CNS = test system: SF-268 CNS
SNB-75 CNS = test system: SNB-75 CNS
DU-145 prostate = test system: DU-145 prostate
RPMI-8226 leukemia = test system: RPMI-8226 leukemia
SF-295 CNS = test system: SF-295 CNS
ACHN renal = test system: ACHN renal
M14 melanoma = test system: M14 melanoma
U251 CNS = test system: U251 CNS
UO-31 renal = test system: UO-31 renal
COLO 205 colon = test system: COLO 205 colon
CCRF-CEM leukemia = test system: CCRF-CEM leukemia
EKVX NSCLC = test system: EKVX NSCLC
OVCAR-5 ovarian = test system: OVCAR-5 ovarian
T-47D breast = test system: T-47D breast
NCI-H226 lung = test system: NCI-H226 lung
RXF 393 renal = test system: RXF 393 renal
NCI-H522 lung = test system: NCI-H522 lung
K-562 leukemia = test system: K-562 leukemia
SK-MEL-2 melanoma = test system: SK-MEL-2 melanoma
OVCAR-4 ovarian = test system: OVCAR-4 ovarian
UACC-62 melanoma = test system: UACC-62 melanoma
SR leukemia = test system: SR leukemia
A498 renal = test system: A498 renal

`C[n+]1c(/C=C/c2ccc(/C=N/NC(=O)c3ccc(C(=O)N/N=C/c4ccc(/C=C/c5cn6ccccc6[n+]5C)cc4)cc3)cc2)cn2ccccc21` was tested, and the TGI (786-0 renal) was > 100 µM, the TGI (UACC-257 melanoma) was > 100 µM and the TGI (SK-OV-3 ovarian) was > 100 µM. The TGI (HS 578T breast) was > 100 µM, the TGI (MCF7 breast) was > 100 µM and the TGI (MDA-MB-435) was > 100 µM. For the same compound, the TGI (HOP-62 NSCLC) was > 100 µM, the TGI (BT-549 breast) was > 100 µM and the TGI (OVCAR-3 ovarian) was > 100 µM. For the same compound, the TGI (MDA-MB-231 breast) was > 100 µM, the TGI (HT29 colon) was > 100 µM and the TGI (SNB-19 CNS) was > 100 µM. The TGI (SW-620 colon) was > 100 µM, the TGI (HOP-92 NSCLC) was > 100 µM and the TGI (HCC-2998 colon) was > 100 µM. For the same compound, the TGI (IGROV1 ovarian) was > 100 µM, the TGI (MDA-N) was > 100 µM and the TGI (KM12 colon) was > 100 µM. The TGI (HL-60(TB) leukemia) was 67.4 µM, the TGI (TK-10 renal) was > 100 µM and the TGI (A549 NSCLC) was > 100 µM. The TGI (SK-MEL-28 melanoma) was > 100 µM, the TGI (PC-3 prostate) was > 100 µM and the TGI (SK-MEL-5 melanoma) was > 100 µM. The TGI (MALME-3M melanoma) was > 100 µM, the TGI (HCT-116 colon) was > 100 µM and the TGI (SF-539 CNS) was > 100 µM. The TGI (NCI-H23 lung) was > 100 µM, the TGI (NCI-H460 lung) was > 100 µM and the TGI (HCT-15 colon) was > 100 µM. The TGI (LOX IMVI melanoma) was > 100 µM, the TGI (MOLT-4 leukemia) was 92.4 µM and the TGI (OVCAR-8 ovarian) was > 100 µM. For the same compound, the TGI (NCI/ADR-RES ovarian) was > 100 µM, the TGI (SN12C renal) was > 100 µM and the TGI (CAKI-1 renal) was > 100 µM. The TGI (SF-268 CNS) was > 100 µM, the TGI (SNB-75 CNS) was > 100 µM and the TGI (DU-145 prostate) was > 100 µM. For the same compound, the TGI (RPMI-8226 leukemia) was > 100 µM, the TGI (SF-295 CNS) was > 100 µM and the TGI (ACHN renal) was > 100 µM. For the same compound, the TGI (M14 melanoma) was > 100 µM, the TGI (U251 CNS) was > 100 µM and the TGI (UO-31 renal) was > 100 µM. For the same compound, the TGI (COLO 205 colon) was > 100 µM, the TGI (CCRF-CEM leukemia) was 49.8 µM and the TGI (EKVX NSCLC) was > 100 µM. The TGI (OVCAR-5 ovarian) was > 100 µM and the TGI (T-47D breast) was > 100 µM.

`CN(C)/C=C/c1c2c(nc3ccccc13)C(=O)c1ccccc1C2=O` showed a TGI (786-0 renal) of 5.51 µM, a TGI (UACC-257 melanoma) of 1.77 µM and a TGI (NCI-H226 lung) of 5.21 µM. It also gave a TGI (SK-OV-3 ovarian) of 11.7 µM, a TGI (HS 578T breast) of 4.21 µM and a TGI (MDA-MB-435) of 0.206 µM. The TGI (HOP-62 NSCLC) was 1.32 µM, the TGI (BT-549 breast) was 4.87 µM and the TGI (OVCAR-3 ovarian) was 0.622 µM. It also gave a TGI (MDA-MB-231 breast) of 4.26 µM, a TGI (HT29 colon) of 4.85 µM and a TGI (SNB-19 CNS) of 4.88 µM. For the same compound, the TGI (SW-620 colon) was 5.04 µM, the TGI (HOP-92 NSCLC) was 30 µM and the TGI (HCC-2998 colon) was 5.17 µM. For the same compound, the TGI (RXF 393 renal) was 9.83 µM, the TGI (IGROV1 ovarian) was 4.71 µM and the TGI (MDA-N) was 0.957 µM. The TGI (NCI-H522 lung) was 4.61 µM, the TGI (KM12 colon) was 3.62 µM and the TGI (TK-10 renal) was 6 µM. The TGI (A549 NSCLC) was 8.72 µM, the TGI (SK-MEL-28 melanoma) was 0.55 µM and the TGI (PC-3 prostate) was 3.77 µM. The TGI (SK-MEL-5 melanoma) was 0.536 µM, the TGI (HCT-116 colon) was 3.26 µM and the TGI (SF-539 CNS) was 5.4 µM. For the same compound, the TGI (NCI-H23 lung) was 0.882 µM, the TGI (K-562 leukemia) was > 100 µM and the TGI (NCI-H460 lung) was 1.4 µM. It also gave a TGI (HCT-15 colon) of 2.71 µM, a TGI (LOX IMVI melanoma) of 0.294 µM and a TGI (SK-MEL-2 melanoma) of 6.27 µM. It also gave a TGI (MOLT-4 leukemia) of 6.32 µM, a TGI (OVCAR-4 ovarian) of 5.42 µM and a TGI (OVCAR-8 ovarian) of 7.71 µM. It also gave a TGI (NCI/ADR-RES ovarian) of 5.6 µM, a TGI (SN12C renal) of 2.84 µM and a TGI (CAKI-1 renal) of 6.31 µM. It also gave a TGI (SF-268 CNS) of 5.26 µM, a TGI (DU-145 prostate) of 2.69 µM and a TGI (RPMI-8226 leukemia) of 3.49 µM. It also gave a TGI (UACC-62 melanoma) of 0.739 µM, a TGI (SF-295 CNS) of 2.88 µM and a TGI (SR leukemia) of 3.09 µM. The TGI (ACHN renal) was 3.44 µM, the TGI (A498 renal) was 9.24 µM and the TGI (M14 melanoma) was 1.92 µM. The TGI (U251 CNS) was 4.66 µM, the TGI (UO-31 renal) was 7.2 µM and the TGI (COLO 205 colon) was 5.5 µM. It also gave a TGI (CCRF-CEM leukemia) of 3.36 µM, a TGI (EKVX NSCLC) of 5.47 µM and a TGI (OVCAR-5 ovarian) of 8.45 µM. For the same compound, the TGI (T-47D breast) was 5.19 µM.
